Data on 3 molecules can be found in patent publication US6951733B2, “Method for testing drug susceptibility of Mycobacterium tuberculosis” (priority 2000, dated 2005).

Experiment [1] deals with 13 M. tuberculosis pan-susceptible strains. The experiment is described as follows: MIC determination on HSTB agar, susceptible strains. It is filed as cell-based. The note with it: for MIC: Mycobacterium tuberculosis, HSTB agar.
Experiment [2] deals with 55 M. tuberculosis clinical isolates. It is filed as cell-based.
Experiment [3] deals with 13 M. tuberculosis pan-susceptible strains. The conditions noted are these: adopted for 7H11 agar; cited from earlier work.
Where [4] appears, read: strains Susceptible by the BACTEC 300 μg/ml.
Setting [5] is: strains Susceptible by the BACTEC 900 μg/ml.

Converted amounts (≈) assume the structure as drawn. Where two headings read alike, the source gives them in different places.

On to `NNC(=O)c1ccncc1` [INH, isoniazid], for which the MIC came out at 0.2 µg/mL (≈ 1.46 µM) in experiment [1] (0.2: 13 strains, read-out: MICs (mcg/ml) of INH for 13 Susceptible Strains, HSTB) and 0.2 µg/mL in experiment [1] (all 13 strains, read-out: MIC of INH).

Consider `NC(=O)c1cnccn1` [PZA, pyrazinamide], for which, in experiment [2] (setting [4]), the “Number of strains by the agar proportion method, 900 μg/ml Susceptible” value is given as 25 and the “Number of strains by the agar proportion method, 1200 μg/ml Susceptible” value is recorded as 25. In addition, in experiment [2] (setting [5]), the “Number of strains by the agar proportion method, 900 μg/ml Susceptible” value was found to be 26 and the “Number of strains by the agar proportion method, 1200 μg/ml Susceptible” value is on record as 27.

Turning to `CO[C@H]1/C=C/O[C@@]2(C)Oc3c(C)c(O)c4c(O)c(c(/C=N/N5CCN(C)CC5)c(O)c4c3C2=O)NC(=O)/C(C)=C\C=C\[C@H](C)[C@H](O)[C@@H](C)[C@@H](O)[C@@H](C)[C@H](OC(C)=O)[C@@H]1C` [RMP, rifampin], the figures for the “critical concentration of RMP” value in experiment [1] and in experiment [3] were 2.0 µg/mL and 1.0 µg/mL, respectively.
